Test results reported in US8604042B2, “Bi-aryl meta-pyrimidine inhibitors of kinases” (TargeGen, Inc., priority 2005, dated 2013).
“Also recorded” adds a separate entry of the source.

Experiments:
[1] = test system: bleomycin induced dermal fibrosis; assay: Mouse model of bleomycin induced dermal fibrosis; assay type: in vivo; conditions: low dose (30 mg/kg, bid) and high dose (100 mg/kg, bid)
Experimental: In vivo studies using compound CLXII were conducted in a mouse model of bleomycin induced dermal fibrosis. FIG. 41 indicates the results of administering a low dose (30 mg/kg, bid) and a high dose (100 mg/kg, bid) of CLXII.

[2] = test system: fibroblasts from sclerotic patients and healthy fibroblasts; assay: Extracellular matrix protein production in fibroblasts (real-time PCR); assay type: cell-based, human
Experimental: An in-vitro study was conducted using compound CLXII to examine the production of extracellular matrix proteins responsible for fibrosis in fibroblasts from sclerotic patients and healthy fibroblasts.

[3] = test system: normal human dermal fibroblasts (NHDF); assay: XTT cell proliferation assay, normal human dermal fibroblast control; assay type: cell-based; conditions: Control data: Normal human dermal fibroblast control
Experimental: (§1) HEL, CTLL-2 & normal human dermal fibroblasts (NHDF) were from the American Tissue Culture Collection Rockville, Md.). BaF/3 cells were obtained from DKFZ Cancer Research Center (Heidelberg, Germany).
(§2) BaF/3, HEL & NHDF cells were grown in RPMI 1640 medium (Gibco BRL, Gaithersburg, Md.) supplemented with penicillin, streptomycin, L-glutamine, and 10% fetal bovine serum (FBS). CTLL-2 cells were grown in the same media further supplemented with 20 U/mL recombinant IL-2 (Hoffmann-LaRoche, Nutley, N.J.). Plasmid containing the human JAK2 coding sequence was purchased from Invitrogen (Madison, Wis.). JAK2^V617F cDNA was generated by using site-directed mutagenesis to introduce the V617F mutation into the human JAK2 coding sequence followed by verification using two-directional sequencing. […]
(§3) Cell proliferation assay was performed using the XTT cell proliferation kit according to the manufacturer's instructions (Roche, Alameda, Calif.). […] The colored formazan product that is formed was measured spectrophotometrically using the Vmax spectrophotometer (Molecular Devices, Sunnyvale, Calif.) at 450 nm with correction at 650 nm. IC50 values were determined using the GraphPad Prism 4.0 software (San Diego, Calif.), wherefore OD values were plotted on y-axis (linear scale) and concentration (mM) on the x-axis (log scale).

STAT5 phosphorylation = STAT5 phosphorylation in Ba/F3-V617F cells; assay type: cell-based; conditions: data not shown
Experimental: Protein concentration was determined using the BCA method (Pierce, Rockford, Ill.) and 100 μg of total cellular protein of each sample in 1× Laemmli buffer were subjected to Western blot analysis. The protein blot was probed with an anti-phospho-STAT5 (Tyr694/699) (Upstate Biotechnology, Charlottesville, Va.), subsequently stripped and re-probed with an anti-STAT5 antibody (Cell Signaling Technology, Danvers, Mass.). The phospho-STAT5 or STAT5 protein was visualized by the enhanced chemoluminescence method (Pierce). In vivo signaling studies were done in a similar fashion. […] Spleens were harvested 7 h after dosing and quickly homogenized in a FastPrep machine (Qbiogen, Irvine, Calif.). 100 μg of each spleen homogenate were subjected to Western blot analysis. The protein […] anti-phospho-STAT5 (Tyr694/699) (Upstate Biotechnology, Charlottesville, Va.), subsequently stripped and re-probed with an anti-STAT5 antibody (Cell Signaling Technology, Danvers, Mass.). The phospho-STAT5 or STAT5 protein was visualized by the enhanced chemoluminescence method (Pierce). In vivo signaling studies were done in a similar fashion. […] Spleens were harvested 7 h after dosing and quickly homogenized in a FastPrep machine (Qbiogen, Irvine, Calif.). 100 μg of each spleen homogenate were subjected to Western blot analysis. […]

CTLL-2 cells = assay: IL-2-induced JAK3-dependent proliferation of CTLL-2 cells; assay type: cell-based; conditions: Mus musculus
Experimental: as §1, §2, §3

[4] = test system: BaF/3 cells expressing JAK2^V617F and GFP; assay: JAK2V617F-driven circulating tumor model in SCID mice; assay type: in vivo, mouse; conditions: oral 10, 30 or 100 mg/kg; day 11; FACS, GFP positive cells
HEL cells = assay: XTT cell proliferation assay, HEL cells; assay type: cell-based; conditions: Homo sapiens
BCR-ABL+K562 cells = assay: Growth of K562 cells; assay type: cell-based; conditions: Homo sapiens, control experiments
Excerpt: (§4) […]. data not shown), reflecting their dependence on signaling by wild type JAK2. […].

parental Ba/F3 cells = assay: Growth of parental Ba/F3 cells; assay type: cell-based; conditions: Mus musculus, BaF3; data not shown
Excerpt: as §4

[5] = test system: phospho-JAK2V617F, phospho-STAT5, phospho-STAT3; assay: Phosphorylation of JAK2V617F, STAT5 and STAT3 in HEL cells; assay type: cell-based; conditions: Homo sapiens, read-out: IC50, levels of phospho-JAK2V617F, phospho-STAT5, phospho-STAT3

SMILES	bleomycin induced dermal fibrosis [1]	basal synthesis of collagen 1a1 ([2]; real-time PCR, 5% FCS, sclerotic vs normal fibroblasts)	basal synthesis of fibronectin 1 ([2]; sclerotic or normal fibroblasts)	basal synthesis of collagen 1a2 ([2]; sclerotic vs normal fibroblasts)	EC50 [3] [nM]	IC50 (STAT5 phosphorylation) [nM]	EC50 (CTLL-2 cells; Control data: IL-2-induced JAK3-dependent proliferation) [nM]	IC50 (CTLL-2 cells; IL-2 dependent cytotoxic T-cells, FIG. 32B, read-out: IC50, growth of CTLL-2 cells) [nM]	number of circulating JAK2^V617F tumor cells [4]	EC50 (HEL cells; XTT, 72 hour incubation) [nM]	IC50 (HEL cells; homozygous for the JAK2V617F allele, FIG. 32C, read-out: IC50, HEL cells) [nM]	IC50 (BCR-ABL+K562 cells) [nM]	IC50 (parental Ba/F3 cells) [nM]	IC50 [5] [nM]
Cc1ccc(Nc2nc(Nc3ccc(N4CCN(C)CC4)cc3)ncc2C)cc1C [CLXII]	prevention of bleomycin induced dermal fibrosis	inhibition of basal synthesis of collagen 1a1 in sclerotic fibroblasts, but not normal, fibroblasts; also recorded: inhibition of basal synthesis of collagen 1a1 in sclerotic, but not normal, fibroblasts	dose not inhibit basal synthesis of fibronection-1 in either sclerotic or normal fibroblasts	some inhibition of basal synthesis of collagen 1a2 in sclerotic fibroblasts, but not normal, fibroblasts	–	–	–	–	–	–	–	–	–	–
Cc1cnc(Nc2ccc(N3CCN(C)CC3)cc2)nc1Nc1cccc(S(=O)(=O)NC(C)(C)C)c1 [XLV]	–	–	–	–	6490	300	3400	3400	reduces the number of circulating JAK2^V617F tumor cells in a dose-dependent manner	270	300	1000	470	300 to 600
